Reference: patent publication US20240208968A1, “ALPHA V BETA 6 AND ALPHA V BETA 1 INTEGRIN INHIBITORS AND USES THEREOF” (DiCE Molecules SV, Inc., priority 2021, published 2024)
Structures can show the parent of a compound that is named as a salt.

Key:
αvβ6 = αvβ6 (Homo sapiens, UniProt P06756+P18564); assay: Solid Phase Integrin αvβ6 Assay; assay type: binding
Method: (§1) The compounds exemplified in this document were tested for their ability to inhibit αvβ1 and αvβ6 in below described solid phase integrin assays.
Solid Phase Integrin αvβ6 Assay
96-well microtiter plates (4 HBX Immulon; Thermo Fisher Scientific, Waltham, MA) were coated with 100 μL/well of 1 μg/mL recombinant TGFb1-LAP in TBS at 4° C., overnight. The coating solution was removed, and plates were blocked with 200 μL/well of blocking and binding buffer (2% BSA/TBST, 1 mM MnCl2) at room temperature for 1 hr. Blocking buffer was removed and 50 uL of binding buffer and testing compounds were added. 50 μL of diluted αvβ6 (0.2 μg/mL in binding buffer) was added to wells (100 uL/well total) and plates incubated for 1 hr at room temperature. Wells were washed thrice with washing buffer (TBS, 0.05% Tween, 1 mM MnCl2) and plates were incubated with 100 μL/well of a 1:12500) dilution of streptavidin-horseradish peroxidase conjugate (Thermo Fisher Scientific) in binding buffer for 20 min at room temperature. Bound protein was detected using the substrate TMB. The IC50 values for testing compounds were calculated by Levenberg-Marquardt four parameter fitting logistics.

αvβ1 = αvβ1 (Homo sapiens, UniProt P05556+P06756); assay: Solid Phase Integrin αvβ1 Assay; assay type: binding
Method: as §1
Solid Phase Integrin αvβ1 Assay
96-well microtiter plates (4 HBX Immulon; Thermo Fisher Scientific, Waltham, MA) were coated with 100 μL/well of 1 μg/mL recombinant TGFb1-LAP in TBS at 4° C., overnight. The coating solution was removed, and plates were blocked with 200 μL/well of blocking and binding buffer (2% BSA/TBST, 1 mM MnCl2) at room temperature for 1 hr. Blocking buffer was removed and 50 μL of binding buffer and testing compounds were added. 50 μL of diluted αvβ1 (0.2 ug/mL in binding buffer) was added to wells (100 μL/well total) for and plates incubated for 90 min at room temperature. Wells were washed thrice with washing buffer (TBS, 0.05% Tween, 1 mM MnCl2) and plates were incubated with 100 μL/well of a 1:12500 dilution of streptavidin-horseradish peroxidase conjugate (Thermo Fisher Scientific) in binding buffer for 20 min at room temperature. Bound protein was detected using the substrate TMB. The IC50 values for testing compounds were calculated by Levenberg-Marquardt four parameter fitting logistics.

αvβ1, sequence (P06756 31-992 limits assumed): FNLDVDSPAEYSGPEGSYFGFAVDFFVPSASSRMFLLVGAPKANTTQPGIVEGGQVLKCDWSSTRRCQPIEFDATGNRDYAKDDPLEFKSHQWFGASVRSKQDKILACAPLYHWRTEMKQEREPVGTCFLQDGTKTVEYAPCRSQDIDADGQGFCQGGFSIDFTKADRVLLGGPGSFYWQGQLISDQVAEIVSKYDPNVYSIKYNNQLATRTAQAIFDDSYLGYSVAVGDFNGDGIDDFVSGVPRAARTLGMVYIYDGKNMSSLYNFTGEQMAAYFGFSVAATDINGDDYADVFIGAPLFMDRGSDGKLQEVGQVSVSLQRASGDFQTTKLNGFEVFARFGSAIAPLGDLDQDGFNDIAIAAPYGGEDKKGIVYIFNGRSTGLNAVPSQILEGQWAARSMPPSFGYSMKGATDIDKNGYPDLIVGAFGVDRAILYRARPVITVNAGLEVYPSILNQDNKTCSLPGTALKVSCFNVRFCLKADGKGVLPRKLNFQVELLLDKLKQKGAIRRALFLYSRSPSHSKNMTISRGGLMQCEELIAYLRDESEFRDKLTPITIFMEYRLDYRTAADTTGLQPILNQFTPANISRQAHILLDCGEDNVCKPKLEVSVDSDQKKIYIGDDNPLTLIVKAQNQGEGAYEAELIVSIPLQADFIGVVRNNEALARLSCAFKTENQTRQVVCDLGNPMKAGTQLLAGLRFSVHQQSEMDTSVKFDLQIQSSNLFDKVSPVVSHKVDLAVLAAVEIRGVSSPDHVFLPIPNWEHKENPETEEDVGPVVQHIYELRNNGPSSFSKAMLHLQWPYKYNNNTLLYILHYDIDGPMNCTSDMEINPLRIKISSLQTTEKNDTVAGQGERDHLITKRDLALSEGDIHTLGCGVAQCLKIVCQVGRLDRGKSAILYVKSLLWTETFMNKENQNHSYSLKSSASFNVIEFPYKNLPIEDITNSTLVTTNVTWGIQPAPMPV
αvβ1, sequence (P05556 21-728 limits assumed): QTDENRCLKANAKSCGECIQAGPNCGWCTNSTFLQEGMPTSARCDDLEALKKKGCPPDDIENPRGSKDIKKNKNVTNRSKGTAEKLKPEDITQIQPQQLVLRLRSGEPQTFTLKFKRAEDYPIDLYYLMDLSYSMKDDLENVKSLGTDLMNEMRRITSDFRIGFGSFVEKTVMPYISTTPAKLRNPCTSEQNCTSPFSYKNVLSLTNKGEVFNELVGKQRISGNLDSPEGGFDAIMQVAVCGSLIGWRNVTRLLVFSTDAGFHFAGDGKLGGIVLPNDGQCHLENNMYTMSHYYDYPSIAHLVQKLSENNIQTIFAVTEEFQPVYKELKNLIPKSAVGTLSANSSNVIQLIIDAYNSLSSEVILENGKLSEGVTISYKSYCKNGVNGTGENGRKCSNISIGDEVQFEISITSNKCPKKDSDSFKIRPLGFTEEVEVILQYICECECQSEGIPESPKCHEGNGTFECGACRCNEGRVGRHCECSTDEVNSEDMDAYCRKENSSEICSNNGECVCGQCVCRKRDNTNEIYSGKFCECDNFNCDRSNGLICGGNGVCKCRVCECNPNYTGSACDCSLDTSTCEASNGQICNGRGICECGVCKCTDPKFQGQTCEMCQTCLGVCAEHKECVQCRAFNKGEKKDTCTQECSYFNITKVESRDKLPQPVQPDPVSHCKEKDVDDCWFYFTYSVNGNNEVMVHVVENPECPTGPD
αvβ6, sequence (P06756 31-992 limits assumed): as the sequence (P06756 31-992 limits assumed) above
αvβ6, sequence (P18564 22-707 limits assumed): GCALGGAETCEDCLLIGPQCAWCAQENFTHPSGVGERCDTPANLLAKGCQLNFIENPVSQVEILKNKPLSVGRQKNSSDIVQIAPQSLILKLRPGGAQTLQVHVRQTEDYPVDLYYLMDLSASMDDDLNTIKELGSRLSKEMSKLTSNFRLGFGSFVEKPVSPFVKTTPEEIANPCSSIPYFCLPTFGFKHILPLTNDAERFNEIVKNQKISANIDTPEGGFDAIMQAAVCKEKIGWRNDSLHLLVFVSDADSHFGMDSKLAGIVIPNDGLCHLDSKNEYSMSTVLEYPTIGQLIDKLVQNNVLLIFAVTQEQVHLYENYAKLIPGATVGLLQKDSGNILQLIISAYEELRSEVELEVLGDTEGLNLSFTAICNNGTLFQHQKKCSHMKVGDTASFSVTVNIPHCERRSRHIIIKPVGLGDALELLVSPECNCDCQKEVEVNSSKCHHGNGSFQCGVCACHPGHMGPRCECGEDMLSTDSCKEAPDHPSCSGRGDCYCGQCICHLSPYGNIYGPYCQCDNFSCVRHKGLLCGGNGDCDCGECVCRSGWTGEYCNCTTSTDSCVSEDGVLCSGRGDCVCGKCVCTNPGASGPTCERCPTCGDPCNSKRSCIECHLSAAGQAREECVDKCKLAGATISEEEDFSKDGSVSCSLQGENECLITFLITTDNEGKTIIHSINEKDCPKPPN

| SMILES | IC50 (αvβ6) [nM] | IC50 (αvβ1) [nM] |
| --- | --- | --- |
| O=C(O)C[C@H](NC(=O)[C@@H]1CCCN(CCCc2ccc3c(n2)NCCC3)C1)c1cccc(C2CC2)c1 [Compound 224, (S)-3-(3-Cyclopropylphenyl)-3-((R)-1-(3-(5,6,7,8-Tetrahydro-1,8-Naphthyridin-2-YI)Propyl)Piperidine-3-Carboxamido)Propanoic Acid hydrochloride] | < 100 | < 100 |
| Cc1cc(C)n(-c2cccc([C@H](CC(=O)O)NC(=O)[C@@H]3CCCN(CCCc4ccc5c(n4)NCCC5)C3)c2)n1 [Compound 225, (S)-3-(3-(3,5-dimethyl-1H-pyrazol-1-yl)phenyl)-3-((R)-1-(3-(5,6,7,8-tetrahydro-1,8-naphthyridin-2-yl)propyl)piperidine-3-carboxamido)propanoic acid hydrochloride] | < 100 | < 100 |
| Cc1cnn(C)c1-c1cccc([C@H](CC(=O)O)NC(=O)[C@@H]2CCCN(CCCc3ccc4c(n3)NCCC4)C2)c1 [Compound 226, (S)-3-(3-(1,4-dimethyl-1H-pyrazol-5-yl)phenyl)-3-((R)-1-(3-(5,6,7,8-tetrahydro-1,8-naphthyridin-2-yl)propyl)piperidine-3-carboxamido)propanoic acid hydrochloride] | < 100 | < 100 |
| O=C(O)C[C@H](NC(=O)[C@@H]1CCCN(CCCc2ccc3c(n2)NCCC3)C1)c1cccc(N2CCCC2)c1 [Compound 227, (S)-3-(3-(pyrrolidin-1-yl)phenyl)-3-((R)-1-(3-(5,6,7,8-tetrahydro-1,8-naphthyridin-2-yl)propyl)piperidine-3-carboxamido)propanoic acid] | < 100 | < 100 |
| CN1CCN(c2cccc([C@H](CC(=O)O)NC(=O)[C@@H]3CCCN(CCCc4ccc5c(n4)NCCC5)C3)c2)CC1 [Compound 228, (S)-3-(3-(4-methylpiperazin-1-yl)phenyl)-3-((R)-1-(3-(5,6,7,8-tetrahydro-1,8-naphthyridin-2-yl)propyl)piperidine-3-carboxamido)propanoic acid] | < 100 | < 100 |
| O=C(O)C[C@H](NC(=O)[C@@H]1CCCN(CCCc2ccc3c(n2)NCCC3)C1)c1cccc(N2CCOCC2)c1 [Compound 229, (S)-3-(3-morpholinophenyl)-3-((R)-1-(3-(5,6,7,8-tetrahydro-1,8-naphthyridin-2-yl)propyl)piperidine-3-carboxamido)propanoic acid hydrochloride] | < 100 | < 100 |
| CC1(C)CCCN(c2cccc([C@H](CC(=O)O)NC(=O)[C@@H]3CCCN(CCCc4ccc5c(n4)NCCC5)C3)c2)C1 [Compound 230, (S)-3-(3-(3,3-dimethylpiperidin-1-yl)phenyl)-3-((R)-1-(3-(5,6,7,8-tetrahydro-1,8-naphthyridin-2-yl)propyl)piperidine-3-carboxamido)propanoic acid] | < 100 | < 100 |
| O=C(O)C[C@H](NC(=O)[C@@H]1CCCN(CCCc2ccc3c(n2)NCCC3)C1)c1cccc(C2CCCC2)c1 [Compound 231, (S)-3-(3-cyclopentylphenyl)-3-((R)-1-(3-(5,6,7,8-tetrahydro-1,8-naphthyridin-2-yl)propyl)piperidine-3-carboxamido)propanoic acid hydrochloride] | < 100 | < 100 |
| O=C(O)C[C@H](NC(=O)[C@@H]1CCCN(CCCc2ccc3c(n2)NCCC3)C1)c1cccc(N2CCCCC2)c1 [Compound 232, (S)-3-(3-(piperidin-1-yl)phenyl)-3-((R)-1-(3-(5,6,7,8-tetrahydro-1,8-naphthyridin-2-yl)propyl)piperidine-3-carboxamido)propanoic acid hydrochloride] | < 100 | < 100 |
| O=C(O)CC(NC(=O)[C@@H]1CCCN(CCCc2ccc3c(n2)NCCC3)C1)c1cnn(-c2ccccc2)c1 (stereo partly drawn) [Compound 233, 3-(1-phenyl-1H-pyrazol-4-yl)-3-((R)-1-(3-(5,6,7,8-tetrahydro-1,8-naphthyridin-2-yl)propyl)piperidine-3-carboxamido)propanoic acid hydrochloride] | < 100 | < 100 |
| CC1(C)CN(c2cccc([C@H](CC(=O)O)NC(=O)[C@@H]3CCCN(CCCc4ccc5c(n4)NCCC5)C3)c2)CCO1 [Compound 234, (S)-3-(3-(2,2-dimethylmorpholino)phenyl)-3-((R)-1-(3-(5,6,7,8-tetrahydro-1,8-naphthyridin-2-yl)propyl)piperidine-3-carboxamido)propanoic acid] | < 100 | < 100 |
| CC1(C)COCCN1c1cccc([C@H](CC(=O)O)NC(=O)[C@@H]2CCCN(CCCc3ccc4c(n3)NCCC4)C2)c1 [Compound 235, (S)-3-(3-(3,3-dimethylmorpholino)phenyl)-3-((R)-1-(3-(5,6,7,8-tetrahydro-1,8-naphthyridin-2-yl)propyl)piperidine-3-carboxamido)propanoic acid] | < 100 | < 100 |
| C[C@@H]1CN(c2cccc([C@H](CC(=O)O)NC(=O)[C@@H]3CCCN(CCCc4ccc5c(n4)NCCC5)C3)c2)C[C@H](C)O1 [Compound 236, (S)-3-(3-((2S,6R)-2,6-dimethylmorpholino)phenyl)-3-((R)-1-(3-(5,6,7,8-tetrahydro-1,8-naphthyridin-2-yl)propyl)piperidine-3-carboxamido)propanoic acid] | < 100 | < 100 |
| CC1(C)CCN(c2cccc([C@H](CC(=O)O)NC(=O)[C@@H]3CCCN(CCCc4ccc5c(n4)NCCC5)C3)c2)CC1 [Compound 237, (S)-3-(3-(4,4-dimethylpiperidin-1-yl)phenyl)-3-((R)-1-(3-(5,6,7,8-tetrahydro-1,8-naphthyridin-2-yl)propyl)piperidine-3-carboxamido)propanoic acid] | < 100 | < 100 |
| Cc1ccn(-c2cccc([C@H](CC(=O)O)NC(=O)[C@@H]3CCCN(CCCc4ccc5c(n4)NCCC5)C3)c2)n1 [Compound 238, (S)-3-(3-(3-methyl-1H-pyrazol-1-yl)phenyl)-3-((R)-1-(3-(5,6,7,8-tetrahydro-1,8-naphthyridin-2-yl)propyl)piperidine-3-carboxamido)propanoic acid] | < 100 | < 100 |
| O=C(O)C[C@H](NC(=O)[C@@H]1CCCN(CCCc2ccc3c(n2)NCCC3)C1)c1cccc(N2CCCC2=O)c1 [Compound 239, (S)-3-(3-(2-oxopyrrolidin-1-yl)phenyl)-3-((R)-1-(3-(5,6,7,8-tetrahydro-1,8-naphthyridin-2-yl)propyl)piperidine-3-carboxamido)propanoic acid] | < 100 | < 100 |
| O=C(O)C[C@H](NC(=O)[C@@H]1CCCN(CCCc2ccc3c(n2)NCCC3)C1)c1cccc(-c2ccccc2)c1 [Compound 240, (S)-3-([1,1′-biphenyl]-3-yl)-3-((R)-1-(3-(5,6,7,8-tetrahydro-1,8-naphthyridin-2-yl)propyl)piperidine-3-carboxamido)propanoic acid hydrochloride] | < 100 | < 100 |
| CC1(C)CN(c2cccc([C@H](CC(=O)O)NC(=O)[C@@H]3CCCN(CCCc4ccc5c(n4)NCCC5)C3)c2)CC(C)(C)O1 [Compound 242, (S)-3-((R)-1-(3-(5,6,7,8-tetrahydro-1,8-naphthyridin-2-yl)propyl)piperidine-3-carboxamido)-3-(3-(2,2,6,6-tetramethylmorpholino)phenyl)propanoic acid] | < 100 | < 100 |
| O=C(O)C[C@H](NC(=O)[C@@H]1CCCN(CCCc2ccc3c(n2)NCCC3)C1)c1ccc(F)c(C2CC2)c1 [Compound 244-A, 3-(3-cyclopropyl-4-fluorophenyl)-3-((R)-1-(3-(5,6,7,8-tetrahydro-1,8-naphthyridin-2-yl)propyl)piperidine-3-carboxamido)propanoic acid] | < 100 | < 100 |
| O=C(O)C[C@@H](NC(=O)[C@@H]1CCCN(CCCc2ccc3c(n2)NCCC3)C1)c1ccc(F)c(C2CC2)c1 [Compound 244-B, 3-(3-cyclopropyl-4-fluorophenyl)-3-((R)-1-(3-(5,6,7,8-tetrahydro-1,8-naphthyridin-2-yl)propyl)piperidine-3-carboxamido)propanoic acid] | < 100 | < 100 |
| O=C(O)C[C@H](NC(=O)[C@@H]1CCCN(CCCc2ccc3c(n2)NCCC3)C1)c1cc(C2CC2)ccc1F [Compound 245-A, 3-(5-cyclopropyl-2-fluorophenyl)-3-((R)-1-(3-(5,6,7,8-tetrahydro-1,8-naphthyridin-2-yl)propyl)piperidine-3-carboxamido)propanoic acid] | < 100 | 100 to 1000 |
